pIC50: −log10 of the molar value. Where two headings read alike, the source gives them in different places. Some results are limits rather than exact numbers.

Assay [1] deals with GDP-bound protein (aa 1-169), containing both G12C and C118A amino acid substitutions (Homo sapiens, UniProt P01116, C118A/G12C). Nature of the assay: Coupled Nucleotide Exchange Assay (SOS-mediated nucleotide exchange, AlphaScreen). Format: biochemical. The following applies: 2 hours compound pre-incubation. In outline: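 His-tagged GDP-bound […] (aa 1-169, G12C/C118A) pre-incubated 2 h with compound titration in 25 mM HEPES pH 7.4, 10 mM MgCl2, 0.01% Triton X-100.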

Assay [2] concerns Phosphorylation of ERK½ in MIA PaCa-2 cells. Nature of the assay: Phospho-ERK½ MSD Assay in MIA PaCa-2 cells. Format: cell-based. The note with it: 4 hours compound treatment, 10 ng/mL EGF for 10 min, read-out: p-ERK IC50 (MIA PaCa-2). The procedure: (§1) Phospho-ERK½ MSD Assay: MIA PaCa-2 (ATCC® CRL-1420™) and A549 (ATCC® CCL-185™) cells were cultured in RPMI 1640 Medium (ThermoFisher Scientific 11875093) containing 10% fetal bovine serum (ThermoFisher Scientific 16000044) and 1× penicillin-streptomycin-glutamine (ThermoFisher Scientific 10378016). Sixteen hours prior to compound treatment, MIA PaCa-2 or A549 cells were seeded in 96-well cell culture plates at a density of 25,000 cells/well and incubated at 37° C., 5% CO2. A compound dose-response titration was diluted in growth media, added to appropriate wells of a cell culture plate, and then incubated at 37° C., 5% CO2 for 4 hours. Following compound treatment, cells were stimulated with 10 ng/mL EGF (Roche 11376454001) for 10 min, washed with ice-cold Dulbecco's phosphate-buffered saline, no Ca^2+ or Mg^2+ (ThermoFisher Scientific 14190144), and then lysed in RIPA buffer (50 mM Tris-HCl pH 7.5, 1% Igepal, 0.5% sodium deoxycholate, 150 mM NaCl, and 0.5% sodium dodecyl sulfate) containing protease inhibitors (Roche 4693132001) and phosphatase inhibitors (Roche 4906837001). Cell lysates were stored frozen at −80° C. overnight. Phosphorylation of ERK½ in compound-treated lysates was assayed using Phospho-ERK½ Whole Cell Lysate kits (Meso Scale Discovery K151DWD) according to the manufacturer's protocol. Assay plates were read on a Meso Scale Discovery Sector Imager 6000, and data were analyzed using a 4-parameter logistic model to calculate IC50 values.

For assay [3], the system named is Phosphorylation of ERK½ in A549 cells. The assay can be described thus: Phospho-ERK½ MSD Assay in A549 cells. Format: cell-based. The following applies: 4 hours compound treatment, 10 ng/mL EGF for 10 min, read-out: p-ERK IC50 (A549). As for the experimental part: as §1
Setting [4] is: Homo sapiens, MIA PaCa-2, MIA PaCa-2 cells.

GDP-bound protein (aa 1-169), containing both G12C and C118A amino acid substitutions, sequence (P01116 1-169 isoform P01116-2 G12C/C118A): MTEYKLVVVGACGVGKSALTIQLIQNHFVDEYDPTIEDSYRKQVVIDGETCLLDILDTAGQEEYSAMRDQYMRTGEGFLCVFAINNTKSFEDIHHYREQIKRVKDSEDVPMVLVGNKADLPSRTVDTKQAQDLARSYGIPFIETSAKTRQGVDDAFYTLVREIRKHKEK

For orientation: pIC50 means −log10 of the IC50, conventionally taken in molar units. For `C=CC(=O)N1CCN(c2snc3c(F)c(-c4cc(N)cc(F)c4F)c(Cl)cc23)CC1` [Example 3-15, 1-(4-(6-(5-amino-2,3-difluorophenyl)-5-chloro-7-fluoro-2,1-benzothiazol-3-yl)-1-piperazinyl)-2-propen-1-one], the “Coupled exchange IC50” value in assay [1] is 4.03 µM. The pIC50 is 4.70 in assay [2] (setting [4]) and less than 4.00 in assay [3] (Homo sapiens, A549, A549 cells).

In the case of `C=CC(=O)N1CCN(c2snc3c(F)c(-c4cccc5ccccc45)c(Cl)cc23)CC1` [Example 3-23, 1-(4-(5-chloro-7-fluoro-6-(naphthalen-1-yl)benzo[c]isothiazol-3-yl)piperazin-1-yl)prop-2-en-1-one], the “Coupled exchange IC50” value in assay [1] came out at 4.65 µM. Besides, the pIC50 in assay [2] (setting [4]) was 4.87; in assay [3] (Homo sapiens, A549, A549 cells), less than 4.00.

In the case of `C=CC(=O)N1CCN(c2snc3c(F)c(-c4cc(O)cc5ccccc45)c(Cl)cc23)[C@@H](C)C1` (single isomer, unassigned) [Example 1-19-2], in assay [1], the “Coupled exchange IC50” value came to 5.10 µM. Moreover, the pIC50 in assay [2] (MIA PaCa-2 cells) and in assay [3] (A549 cells) was less than 4.00 throughout.

As to `C=CC(=O)N1CCN(c2snc3c(F)c(-c4cc(O)c(F)cc4F)c(Cl)cc23)CC1` [Example 3-10, 1-(4-(5-chloro-6-(2,4-difluoro-5-hydroxyphenyl)-7-fluoro-2,1-benzothiazol-3-yl)-1-piperazinyl)-2-propen-1-one], the “Coupled exchange IC50” value in assay [1] was 4.74 µM. For the same compound, the pIC50 was 4.18 in assay [2] (setting [4]) and 4.95 in assay [3] (Homo sapiens, A549, A549 cells).

Take `C=CC(=O)N1CCN(c2nnc(Nc3ccccc3)c3cc(-c4c(O)cccc4F)c(Cl)cc23)CC1` [Example 13, 1-(4-(4-Anilino-7-chloro-6-(2-fluoro-6-hydroxyphenyl)-1-phthalazinyl)-1-piperazinyl)-2-propen-1-one]: the “Coupled exchange IC50” value in assay [1] was determined as 5.20 µM. The pIC50 is less than 4.00 in assay [2] (setting [4]) and less than 4.00 in assay [3] (Homo sapiens, A549, A549 cells).

For `C=CC(=O)N(C)C1CN(c2snc3c(F)c(-c4cc(O)cc5ccccc45)c(Cl)cc23)C1` [Example 5-1, N-(1-(5-Chloro-7-fluoro-6-(3-hydroxy-1-naphthalenyl)-2,1-benzothiazol-3-yl)-3-azetidinyl)-N-methyl-2-propenamide], the “Coupled exchange IC50” value in assay [1] was determined as 0.875 µM. Moreover, the pIC50 in assay [2] (setting [4]) is 5.54; in assay [3] (Homo sapiens, A549, A549 cells), less than 4.00.

Consider `C=CC(=O)N1CCN(c2snc3c(F)c(-c4cc(O)cc5ccccc45)c(Cl)cc23)C[C@@H]1C` [Example 5-4, 1-((2S)-4-(5-chloro-7-fluoro-6-(3-hydroxy-1-naphthalenyl)-2,1-benzothiazol-3-yl)-2-methyl-1-piperazinyl)-2-propen-1-one], for which, in assay [1], the “Coupled exchange IC50” value stood at 0.610 µM. Also, the pIC50 was 5.49 in assay [2] (setting [4]) and less than 4.00 in assay [3] (Homo sapiens, A549, A549 cells).

On to `C=CC(=O)N1CCN(c2snc3c(F)c(-c4cc(O)cc5ccccc45)c(Cl)cc23)CC1` (single isomer, unassigned) [Example 3-1-2, 1-(4-(5-chloro-7-fluoro-6-(3-hydroxy-1-naphthalenyl)-2,1-benzothiazol-3-yl)-1-piperazinyl)-2-propen-1-one], for which the “Coupled exchange IC50” value in assay [1] was found to be 0.302 µM. For the same compound, the pIC50 in assay [2] (MIA PaCa-2 cells) is 5.63; in assay [3] (A549 cells) it was less than 4.00.

`C=CC(=O)N1CCN(c2snc3c(F)c(-c4c(O)ccc5ccccc45)c(Cl)cc23)CC1` [Example 1-14, 1-(4-(5-chloro-7-fluoro-6-(2-hydroxy-1-naphthalenyl)-2,1-benzothiazol-3-yl)-1-piperazinyl)-2-propen-1-one]: the “Coupled exchange IC50” value in assay [1] was determined as 1.78 µM. Moreover, the pIC50 in assay [2] (setting [4]) is 5.30; in assay [3] (Homo sapiens, A549, A549 cells), less than 4.00.

For the compound `C=CC(=O)N1CCN(c2nc(=O)n(-c3ccccc3C(C)C)c3cc(-c4cc(N)ccc4Cl)c(Cl)cc23)[C@@H](C)C1` [Example 9-3, 7-(5-amino-2-chlorophenyl)-6-chloro-4-((2S)-2-methyl-4-(2-propenoyl)-1-piperazinyl)-1-(2-(2-propanyl)phenyl)-2(1H)-quinazolinone], the “Coupled exchange IC50” value in assay [1] turned out to be 0.113 µM. In addition, the negative logarithm of the IC50 (pIC50) was 7.46 in assay [2] (setting [4]) and 4.18 in assay [3] (Homo sapiens, A549, A549 cells).

For `C=CC(=O)N1CCN(c2nnc(-c3ccccc3OC)c3cc(-c4c(O)cccc4F)c(Cl)cc23)CC1` [Example 10-2, 1-(4-(7-chloro-6-(2-fluoro-6-hydroxyphenyl)-4-(2-methoxyphenyl)phthalazin-1-yl)piperazin-1-yl)prop-2-en-1-one], in assay [1], the “Coupled exchange IC50” value stood at 1.93 µM. Also, the negative-log IC50 (pIC50) is 4.44 in assay [2] (setting [4]) and less than 4.00 in assay [3] (Homo sapiens, A549, A549 cells).

As for `C=CC(=O)N1CCN(c2nnc(-c3ccccc3C3CC3)c3cc(-c4c(O)cccc4F)c(Cl)cc23)CC1` [Example 10-10, 1-(4-(7-chloro-4-(2-cyclopropylphenyl)-6-(2-fluoro-6-hydroxyphenyl)-1-phthalazinyl)-1-piperazinyl)-2-propen-1-one], the “Coupled exchange IC50” value in assay [1] was 0.359 µM. Also, the pIC50 in assay [2] (setting [4]) was 5.16; in assay [3] (Homo sapiens, A549, A549 cells), less than 4.00.

For the compound `C=CC(=O)N1CCN(c2nc(=O)n(-c3ccccc3C(C)C)c3cc(-c4c(O)cccc4F)c(Cl)cc23)CC1` [Example 8-1, 6-Chloro-7-(2-fluoro-6-hydroxyphenyl)-1-(2-(2-propanyl)phenyl)-4-(4-(2-propenoyl)-1-piperazanyl)-2(1H)-quinazolinone], the “Coupled exchange IC50” value in assay [1] amounted to 0.542 µM. Further, the negative logarithm of the IC50 (pIC50) in assay [2] (MIA PaCa-2 cells) was 6.68; in assay [3] (Homo sapiens, A549, A549 cells), 4.21.

For the compound `C=CC(=O)N1CCN(c2snc3cc(-c4cc(OC)cc5ccccc45)c(Cl)cc23)CC1` [Example 1-4, 1-(4-(5-chloro-6-(3-methoxy-1-naphthalenyl)-2,1-benzothiazol-3-yl)-1-piperazinyl)-2-propen-1-one], the “Coupled exchange IC50” value in assay [1] was greater than 10 µM. Besides, the pIC50 in assay [2] (setting [4]) is less than 4.00; in assay [3] (Homo sapiens, A549, A549 cells) it was less than 4.00.

In the case of `C=CC(=O)N1CC[C@H]2[C@@H]1CN2c1snc2c(F)c(-c3cc(O)cc4ccccc34)c(Cl)cc12` [Example 5-6, 1-((1S,5S)-6-(5-chloro-7-fluoro-6-(3-hydroxy-1-naphthalenyl)-2,1-benzothiazol-3-yl)-2,6-diazabicyclo[3.2.0]heptan-2-yl)-2-propen-1-one], in assay [1], the “Coupled exchange IC50” value was found to be 0.883 µM. The pIC50 in assay [2] (setting [4]) was 5.23; in assay [3] (Homo sapiens, A549, A549 cells), less than 4.00.

Regarding `C=CC(=O)N1CCN(c2snc3c(F)c(-c4c(C)ccc5[nH]ncc45)c(Cl)cc23)[C@@H](C)C1` [Example 1-10, 1-((3S)-4-(5-chloro-7-fluoro-6-(5-methyl-1H-indazol-4-yl)-2,1-benzothiazol-3-yl)-3-methyl-1-piperazinyl)-2-propen-1-one], the “Coupled exchange IC50” value in assay [1] came out at 0.381 µM. Moreover, the pIC50 was 5.96 in assay [2] (setting [4]) and 4.95 in assay [3] (Homo sapiens, A549, A549 cells).

As for `C=CC(=O)N1CCN(c2snc3nc(-c4cc(O)cc5ccccc45)c(Cl)cc23)CC1` [Example 2-1, 1-(4-(5-chloro-6-(3-hydroxy-1-naphthalenyl)[1,2]thiazolo[3,4-b]pyridin-3-yl)-1-piperazinyl)-2-propen-1-one], the “Coupled exchange IC50” value in assay [1] came to 0.341 µM. In addition, the negative logarithm of the IC50 (pIC50) is 5.72 in assay [2] (setting [4]) and 5.43 in assay [3] (Homo sapiens, A549, A549 cells).

With `C=CC(=O)N1CCN(c2snc3c(F)c(-c4nc(N)ccc4Cl)c(Cl)cc23)CC1` [Example 6-1, 1-(4-(6-(6-Amino-3-chloro-2-pyridinyl)-5-chloro-7-fluoro-2,1-benzothiazol-3-yl)-1-piperazinyl)-2-propen-1-one], the “Coupled exchange IC50” value in assay [1] worked out at 0.537 µM. The pIC50 was 5.89 in assay [2] (setting [4]) and 5.43 in assay [3] (Homo sapiens, A549, A549 cells).
